# Source: patent publication US12617773B2, “Azetidin-3-ylmethanol derivatives as CCR6 receptor modulators” (Idorsia Pharmaceuticals Ltd, priority 2020, dated 2026)
# Molecular target: T1, human CCR6 (Homo sapiens, UniProt P51684)
# T1 construct: expressed in transfected cells; host or cells: HEK-293
# T1 sequence (P51684 1-374): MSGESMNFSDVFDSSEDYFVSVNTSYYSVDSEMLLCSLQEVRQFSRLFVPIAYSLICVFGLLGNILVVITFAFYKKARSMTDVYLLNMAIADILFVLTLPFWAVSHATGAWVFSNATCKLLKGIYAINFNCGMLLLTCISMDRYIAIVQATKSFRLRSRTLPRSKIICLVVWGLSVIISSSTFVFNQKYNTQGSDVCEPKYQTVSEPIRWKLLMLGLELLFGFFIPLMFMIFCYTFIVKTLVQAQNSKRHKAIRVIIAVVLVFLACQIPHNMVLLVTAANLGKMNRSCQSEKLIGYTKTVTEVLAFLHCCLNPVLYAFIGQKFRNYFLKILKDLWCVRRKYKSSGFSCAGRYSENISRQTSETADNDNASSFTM
# Experiment: FLIPR assay (inhibition of CCL20-induced calcium signal)
# Type: cell-based
# Settings: HEK-293 cells expressing human CCR6; mean values where determined several times; read-out: FLIPR IC50
# Summary of the method: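 IC50 values come from baseline-corrected peak calcium fluorescence after agonist. The agonist was CCL20 at 10 nM final, added to engineered human CCR6 HEK-293 cells following a 30-min, room-temperature, dark preincubation with serially diluted compound. Readings were taken in a fluorometric imaging plate reader.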
row,IC50,SMILES
1,38.4 nM,CC(C)c1ccc([C@](O)(c2cncc(N3CCC(C(C)C)C3=O)c2)C2(C)CN(C)C2)cc1 (stereo partly drawn) [Example 208]
2,58.8 nM,CC(C)c1ccc([C@](O)(c2cncc(-c3noc(C4(N(C)S(C)(=O)=O)CC4)n3)c2)C2(C)CN(C)C2)cc1 [Example 391]
3,68.8 nM,CC(C)c1ccc([C@](O)(c2cncc(C#CC(C)(O)c3cc(C4CC4)ncn3)c2)C2(C)CN(C)C2)cc1 (stereo partly drawn) [Example 619]
4,61 nM,CN1CC(C)([C@](O)(c2ccc(OC(F)(F)F)cc2)c2cncc(-c3noc(C(C)(C)O)n3)c2)C1 [Example 545]
5,172 nM,Cc1ncc(C2CC(=O)N(c3cncc([C@@](O)(c4ccc(C(C)C)cc4)C4(C)CN(C)C4)c3)C2)s1 (stereo partly drawn) [Example 672]
6,114 nM,"CN1CC(F)(C(O)(c2ccc(OC(F)(F)F)cc2)c2cncc(N3CCCC3)c2)C1 (stereo not drawn) [Example 1, (3-Fluoro-1-methyl-azetidin-3-yl)-(5-pyrrolidin-1-yl-pyridin-3-yl)-(4-trifluoromethoxy-phenyl)-methanol]"
7,79.5 nM,"COc1cc(C(C)(O)C#Cc2cncc([C@@](O)(c3ccc(C(C)C)cc3)C3(C)CN(C)C3)c2)nc(C)n1 (single isomer, unassigned) [Example 631]"
8,65.9 nM,"CCCC(=O)N1CCC(c2nc(-c3cncc([C@@](O)(c4ccc(C(C)C)cc4)C4(C)CN(C)C4)c3)no2)CC1 [Example 370, 1-[4-(3-{5-[(R)-(1,3-Dimethyl-azetidin-3-yl)-hydroxy-(4-isopropyl-phenyl)-methyl]-pyridin-3-yl}-[1,2,4]oxadiazol-5-yl)-piperidin-1-yl]-butan-1-one]"
9,97.6 nM,CN1CC(C)([C@](O)(c2ccc(C3CC3)cc2)c2cncc(-c3noc(C(C)(C)O)n3)c2)C1 [Example 568]
10,142 nM,CC(=O)N1CC[C@@H](Cc2nc(-c3cncc([C@@](O)(c4ccc(C(C)C)cc4)C4(C)CN(C)C4)c3)no2)C1 [Example 514]
11,201 nM,CC(=O)N1CCCC(O)(c2nc(-c3cncc([C@@](O)(c4ccc(C(C)C)cc4)C4(C)CN(C)C4)c3)no2)C1 (stereo partly drawn) [Example 456]
12,90 nM,"CC(=O)N1CCC(c2nc(-c3cncc([C@@](O)(c4ccc(C(C)C)cc4)C4(C)CN(C)C4)c3)no2)CC1 [Example 531, 1-[4-(3-{5-[(R)-(1,3-Dimethyl-azetidin-3-yl)-hydroxy-(4-isopropyl-phenyl)-methyl]-pyridin-3-yl}-[1,2,4]oxadiazol-5-yl)-piperidin-1-yl]-ethanone]"
13,110 nM,CC(C)CN1CC(C)([C@](O)(c2ccc(OC(F)(F)F)cc2)c2cncc(N3CCCC3)c2)C1 [Example 8]
14,485 nM,"COc1ncc(C(O)(c2ccc(C(C)C)cc2)C2(C)CN(C)C2)cn1 (stereo not drawn) [Example 272, (1,3-Dimethyl-azetidin-3-yl)-(4-isopropyl-phenyl)-(2-methoxy-pyrimidin-5-yl)-methanol]"
15,231 nM,CC(C)c1ccc([C@](O)(c2cncc(-c3nc(CN4CCOCC4)no3)c2)C2(C)CN(C)C2)cc1 [Example 89]
16,80.6 nM,"CC(C)c1ccc([C@](O)(c2cncc(C3CCC(O)(C(C)C)C3)c2)C2(C)CN(C)C2)cc1 (stereo partly drawn) [Example 299, 3-{5-[(R)-(1,3-Dimethyl-azetidin-3-yl)-hydroxy-(4-isopropyl-phenyl)-methyl]-pyridin-3-yl}-1-isopropyl-cyclopentanol]"
17,54.3 nM,CC(C)c1ccc([C@](O)(c2cncc(-c3noc(C4CCOCC4)n3)c2)C2(C)CN(C)C2)cc1 [Example 107]
18,49.7 nM,CC(C)c1ccc([C@](O)(c2cncc(-c3noc(C4CCN(C(=O)C(C)(C)C)CC4)n3)c2)C2(C)CN(C)C2)cc1 [Example 371]
19,271 nM,CC(C)c1ccc([C@](O)(c2cncc(-c3noc(C4(C)CCNCC4)n3)c2)C2(C)CN(C)C2)cc1 [Example 368]
20,143 nM,CC(C)c1ccc([C@](O)(c2cncc(-c3noc(C4CC(=O)N(C)C(=O)C4)n3)c2)C2(C)CN(C)C2)cc1 [Example 504]
21,105 nM,"CC(=O)N1CCc2nc(-c3cncc([C@@](O)(c4ccc(C(C)C)cc4)C4(C)CN(C)C4)c3)ncc2C1 [Example 683, 1-(2-{5-[(R)-(1,3-Dimethyl-azetidin-3-yl)-hydroxy-(4-isopropyl-phenyl)-methyl]-pyridin-3-yl}-7,8-dihydro-5H-pyrido[4,3-d]pyrimidin-6-yl)-ethanone]"
22,46.9 nM,CC(C)c1ccc([C@](O)(c2cncc(-c3noc([C@H]4C[C@@H](C)O[C@@H](C)C4)n3)c2)C2(C)CN(C)C2)cc1 [Example 125]
23,70.8 nM,CN1CC(C)([C@](O)(c2ccc(CC(F)(F)F)cc2)c2cncc(-c3noc(C4CCOCC4)n3)c2)C1 [Example 550]
24,53.6 nM,CC(C)c1ccc([C@](O)(c2cnnc(N3CC(C4CC4)CC3=O)c2)C2(C)CN(C)C2)cc1 (stereo partly drawn) [Example 438]
25,128 nM,CC(C)c1ccc([C@](O)(c2cncc(-c3noc(C4(C)CCC(=O)NC4)n3)c2)C2(C)CN(C)C2)cc1 (stereo partly drawn) [Example 480]
26,259 nM,CC(C)c1ccc([C@](O)(c2cncc(-c3noc(CN4CCCC4=O)n3)c2)C2(C)CN(C)C2)cc1 [Example 485]

row,IC50,SMILES
1,216 nM,[2H]C([2H])([2H])C(=O)N(C)Cc1nc(-c2cncc([C@@](O)(c3ccc(C(C)C)cc3)C3(C)CN(C)C3)c2)no1 [Example 334]
2,29 nM,CC(C)c1ccc([C@](O)(c2cncc(-c3noc(C4CC(=O)N(Cc5ccco5)C4)n3)c2)C2(C)CN(C)C2)cc1 (stereo partly drawn) [Example 354]
3,35.2 nM,"CC(=O)N1CCC(c2nc(-c3cncc([C@@](O)(c4ccc(C(C)C)cc4)C4(F)CN(C5CC5)C4)c3)no2)CC1 [Example 448, 1-[4-(3-{5-[(S)-(1-Cyclopropyl-3-fluoro-azetidin-3-yl)-hydroxy-(4-isopropyl-phenyl)-methyl]-pyridin-3-yl}-[1,2,4]oxadiazol-5-yl)-piperidin-1-yl]-ethanone]"
4,13.1 nM,COC1CCC(Oc2cncc([C@@](O)(c3ccc(C(C)C)cc3)C3(C)CN(C)C3)c2)C1 (stereo partly drawn) [Example 253]
5,219 nM,CC(C)c1ccc([C@](O)(c2cncc(CCCO)c2)C2(C)CN(C)C2)cc1 [Example 49]
6,90.6 nM,CN1CC(C)(C(O)(c2ccc(OC(F)(F)F)cc2)c2cncc(-n3cccn3)c2)C1 (stereo not drawn) [Example 265]
7,395 nM,CC(=O)N1CCC(O)(C#Cc2cncc([C@@](O)(c3ccc(C(C)C)cc3)C3(C)CN(C)C3)c2)CC1 [Example 597]
8,91.6 nM,CN1CC(C)(C(O)(c2ccc(C3(C(F)(F)F)CC3)cc2)c2cncc(N3CCCC3)c2)C1 (stereo not drawn) [Example 159]
9,23 nM,CC(C)c1ccc([C@](O)(c2cncc(C#CC3(O)CN(C(=O)OC(C)(C)C)C3)c2)C2(C)CN(C)C2)cc1 [Example 20]
10,43.5 nM,CN1CC(C)([C@](O)(c2ccc(C3(C(F)(F)F)CC3)cc2)c2cncc(N3CC[C@H](C(C)(C)O)C3)c2)C1 [Example 186]
11,62 nM,"COCC(C)(C)c1nc(-c2cncc([C@@](O)(c3ccc(C(C)C)cc3)C3(C)CN(C)C3)c2)no1 [Example 134, (R)-(1,3-Dimethyl-azetidin-3-yl)-(4-isopropyl-phenyl)-{5-[5-(2-methoxy-1,1-dimethyl-ethyl)-[1,2,4]oxadiazol-3-yl]-pyridin-3-yl}-methanol]"
12,75.3 nM,CCCc1ccc([C@](O)(c2cncc(-c3nc(C4CCOCC4)no3)c2)C2(C)CN(C)C2)cc1 [Example 86]
13,185 nM,CC(C)c1ccc([C@](O)(c2cncc(-c3noc(CN4CCNC4=O)n3)c2)C2(C)CN(C)C2)cc1 [Example 493]
14,2450 nM,CC(C)Oc1ccc([C@](O)(c2cncc(-c3noc(C(C)(C)O)n3)c2)C2(C)CN(C)C2)cc1 [Example 536]
15,46.8 nM,CC(C)c1ccc([C@](O)(c2cncc(C#Cc3cnn(C)c3)c2)C2(C)CN(C)C2)cc1 [Example 23]
16,567 nM,CC(C)c1ccc([C@](O)(c2cncc(C(=O)N3CCCC3)c2)C2(C)CN(C)C2)cc1 [Example 307]
17,15.5 nM,CC(C)c1ccc([C@](O)(c2cncc(OCCOCc3ccccc3)c2)C2(C)CN(C)C2)cc1 [Example 258]
18,428 nM,"CC(=O)N1CCC(C2CC(=O)N(c3cc([C@@](O)(c4ccc(C(C)C)cc4)C4(C)CN(C)C4)cnn3)C2)CC1 (stereo partly drawn) [Example 680, 4-(1-Acetyl-piperidin-4-yl)-1-{5-[(R)-(1,3-dimethyl-azetidin-3-yl)-hydroxy-(4-isopropyl-phenyl)-methyl]-pyridazin-3-yl}-pyrrolidin-2-one]"
19,74.6 nM,CC(C)c1c(F)cc([C@](O)(c2cncc(-c3noc(C(C)(C)O)n3)c2)C2(C)CN(C)C2)cc1F [Example 560]
20,154 nM,CC(C)C(=O)NC(C)(C)C#Cc1cncc([C@@](O)(c2ccc(C(C)C)cc2)C2(C)CN(C)C2)c1 [Example 589]
21,31.2 nM,CC(C)c1ccc([C@](O)(c2cncc(C#CC3CCN(S(C)(=O)=O)CC3)c2)C2(C)CN(C)C2)cc1 [Example 603]
22,49.9 nM,"Cc1cnc(-c2cncc([C@@](O)(c3ccc(C(C)C)cc3)C3(C)CN(C)C3)c2)o1 [Example 322, (R)-(1,3-Dimethyl-azetidin-3-yl)-(4-isopropyl-phenyl)-[5-(5-methyl-oxazol-2-yl)-pyridin-3-yl]-methanol]"
23,297 nM,CC(=O)N1CC(Cc2noc(-c3cncc([C@@](O)(c4ccc(C(C)C)cc4)C4(C)CN(C)C4)c3)n2)C1 [Example 523]
24,118 nM,Cc1cncc(C(C)(O)CCc2cncc([C@@](O)(c3ccc(C(C)C)cc3)C3(C)CN(C)C3)c2)c1 (stereo partly drawn) [Example 417]
25,184 nM,CC(C)c1ccc([C@](O)(c2cncc(N3CCC(C4CCOCC4)C3=O)c2)C2(C)CN(C)C2)cc1 (stereo partly drawn) [Example 214]
